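Growth conditions: 96-well plates. Treatment: test compound, 48 hours, 5 concentrations. Analysis: linear interpolation between bracketing concentrations; unreached endpoints set to highest concentration. At the TGI there is no net growth.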
Columns and labels:
Assay in all cases: DTP human tumour cell line panel, 48 h
SNB-75 CNS = test system: SNB-75 CNS
U251 CNS = test system: U251 CNS
SW-620 colon = test system: SW-620 colon
HL-60(TB) leukemia = test system: HL-60(TB) leukemia
HOP-18 NSCLC = test system: HOP-18 NSCLC
HCT-116 colon = test system: HCT-116 colon
T-47D breast = test system: T-47D breast
M19-MEL melanoma = test system: M19-MEL melanoma
UACC-257 melanoma = test system: UACC-257 melanoma
SK-OV-3 ovarian = test system: SK-OV-3 ovarian

Q: `COc1ccc2c(-c3cc4ccccc4o3)cc(=O)oc2c1` was tested. Which TGI (SNB-75 CNS) did it give?
A: 47.6 µM

Q: And the TGI (U251 CNS)?
A: > 96 µM

Q: And the TGI (SW-620 colon)?
A: > 100 µM

Q: What about the TGI (HL-60(TB) leukemia) of the same compound?
A: > 100 µM

Q: And the TGI (HOP-18 NSCLC)?
A: > 100 µM

Q: What about the TGI (HCT-116 colon) of the same compound?
A: > 100 µM

Q: What about the TGI (T-47D breast) of the same compound?
A: > 100 µM

Q: What about the TGI (M19-MEL melanoma) of the same compound?
A: > 100 µM

Q: What about the TGI (UACC-257 melanoma) of the same compound?
A: > 100 µM

Q: And the TGI (SK-OV-3 ovarian)?
A: 52.1 µM

Q: With `CCOC(=O)Cc1nc(/C(C#N)=C/c2ccco2)[nH]c(=O)c1C#N` as the compound, how does the TGI (SNB-75 CNS) read?
A: > 100 µM

Q: What about the TGI (U251 CNS) of the same compound?
A: > 100 µM

Q: What about the TGI (SW-620 colon) of the same compound?
A: > 100 µM

Q: And the TGI (HL-60(TB) leukemia)?
A: > 100 µM

Q: And the TGI (HOP-18 NSCLC)?
A: > 100 µM

Q: And the TGI (HCT-116 colon)?
A: > 100 µM

Q: What about the TGI (M19-MEL melanoma) of the same compound?
A: > 100 µM

Q: And the TGI (UACC-257 melanoma)?
A: > 100 µM

Q: And the TGI (SK-OV-3 ovarian)?
A: > 100 µM

Q: What does the source list for `CC1CCCC(C(=O)/C(=C/c2cccc(Cl)c2)C(=O)C(=O)O)C1` (configuration not stated)?
A: TGI (SNB-75 CNS): > 100 µM; TGI (U251 CNS): 32.5 µM; TGI (SW-620 colon): 27.7 µM; TGI (HL-60(TB) leukemia): 47.9 µM; TGI (HOP-18 NSCLC): > 100 µM; TGI (HCT-116 colon): 26.9 µM; TGI (M19-MEL melanoma): 32.7 µM; TGI (UACC-257 melanoma): > 100 µM; TGI (SK-OV-3 ovarian): > 100 µM

Q: For `COc1cc(/C=C\c2ccc(O)cc2)cc(OC)c1OC`, which TGI (SNB-75 CNS) is on record?
A: > 30 µM

Q: What about the TGI (U251 CNS) of the same compound?
A: > 23.6 µM

Q: What about the TGI (SW-620 colon) of the same compound?
A: > 100 µM

Q: And the TGI (HL-60(TB) leukemia)?
A: > 29.3 µM

Q: And the TGI (HOP-18 NSCLC)?
A: > 100 µM

Q: And the TGI (HCT-116 colon)?
A: > 59.8 µM

Q: What about the TGI (M19-MEL melanoma) of the same compound?
A: > 100 µM

Q: And the TGI (UACC-257 melanoma)?
A: > 100 µM

Q: What about the TGI (SK-OV-3 ovarian) of the same compound?
A: 61.6 µM

Reference: PubChem BioAssay (NCI)
